Reference: US20250101025A1, “NOVEL PLK1 DEGRADATION INDUCING COMPOUND” (UPPTHERA, INC., priority 2021, published 2025)
Read-outs that look alike come from different tables or passages of the source.

Columns and labels:
Assay type in all cases: cell-based
MRC-5 cell line = test: Cell viability assay for MRC-5 cell line (EZ-Cytox cytotoxicity experiment); details: Homo sapiens, MRC5, 120 h, MRC-5 normal cell line, 5 days
Experimental: 4. Cell Viability Assay for MRC-5 Cell Line
(1) Culture of MRC-5 Cell Line
Passage of cultured cells was maintained within P15.
(2) Treatment of Compounds of the Present Invention
Then, it was cultured in 37° C.
(3) Cytotoxicity Experiment
CO2 incubator for 4 hours.

H526 cell line = test: Cell viability assay for NCI-H526 cell line (EZ-Cytox); details: Homo sapiens, NCI-H526, 120 h; H526 cells, 3-fold dilutions 3000 nM to 0.46 nM, 5 days
Experimental: (1) Culture of NCI-H526 Cell Line
(2) Treatment of Compounds of the Present Invention and Method of Cell Viability Assay
After treating the compound to each well to make the total volume of 200 μL, it was cultured in a CO2 incubator (Thermo Fisher Science, Cat. No. 4111) for 5 days.
The absorbance of the completely cultured sample was measured by setting the wavelength of a plate reader (BMG Labtech, CLARIOstar Plus) to […], and was measured after shaking for 3 minutes in a plate reader before measurement.
In Table 3, Activity represents IC50 value of each Exemplary Compound treatment group to H526 cell line (A: <30 nM, B: <50 nM, C: <100 nM, D: <200 nM, E: <400 nM).

PLK1 = biological target: T1, PLK1 (Homo sapiens, UniProt P53350); test: Luciferase assay for PLK1 in HeLa LgBit (Plk1-HiBit KI) cell line; details: compound 300 nM, luminescence after 9 hours
T1 construct: endogenous in cells; host or cells: HeLa LgBit (Plk1-HiBit KI): HeLa stably expressing LgBit, with HiBit knocked in at the endogenous Plk1 locus by CRISPR/Cas9
Experimental: 2. Luciferase Assay for PLK1
(1) Preparation and Culture of HeLa LgBit (Plk1-HiBit KI) Cell Line
A HeLa cell line in which the LgBit vector was transfected and expressed stably was prepared. Then, after constructing gRNA and donor to express the HiBit amino acid sequence behind the C-terminal of the Plk1 gene, which was inherent in the cell, it was inserted into the cell together with a vector capable of expressing CRISPR/Cas9. Only the cells in which the insertion was completed and knock-in had progressed were selected, sub-cultured and used.
(2) Treatment of Compounds of the Present Invention and Method of Luciferase Assay
In the case of HeLa LgBit (Plk1-HiBit KI), the compounds were treated after being released after thymidine block, and the process was as follows. Thymidine (Sigma-Aldrich Cat. No. T9250-5G) was completely dissolved in DW and used in the experiment. For thymidine block, the products were treated with 2 mM of thymidine and then incubated for 24 hours. For release and chemical treatment, the medium was suctioned and washed with 1×PBS. TrypLE™ was added and incubated in 37° C. CO2 incubator for 5 min. Cells neutralized by adding complete media were counted through a counter. For each well of a 96-well culture plate (SPL), 3.3×10^4 cells and a total medium volume of 150 μL were seeded and incubated in a CO2 incubator.
Each cell line was incubated in a CO2 incubator for 18 hours, and Endurazine was added to each well to make up 4% of the total volume. After adding the compound of the present invention in a 96-well white plate (SPL) to a concentration of 300 nM, the wavelength of the plate reader (BMG Labtech, CLARIOstar Plus) was set to […], and then the luminescence was tracked in real time.
In Table 2, Activity represents the ratio of the luminescence value of each Exemplary Compound treatment group to DMSO treatment group (+++: <0.3, ++<0.6, +<0.7).

[1] = highest concentration 10000 nM, N.D. = no cytotoxicity until 10 μM, read-out: Activity: IC50 value to MRC-5 cell line, N.D. cells
[2] = 3-fold dilutions 10000 nM to 1.52 nM, Exemplary Compounds, numeric values, read-out: Activity: IC50 value (nM) to MRC-5 cell line

T1 sequence (P53350 whole entry): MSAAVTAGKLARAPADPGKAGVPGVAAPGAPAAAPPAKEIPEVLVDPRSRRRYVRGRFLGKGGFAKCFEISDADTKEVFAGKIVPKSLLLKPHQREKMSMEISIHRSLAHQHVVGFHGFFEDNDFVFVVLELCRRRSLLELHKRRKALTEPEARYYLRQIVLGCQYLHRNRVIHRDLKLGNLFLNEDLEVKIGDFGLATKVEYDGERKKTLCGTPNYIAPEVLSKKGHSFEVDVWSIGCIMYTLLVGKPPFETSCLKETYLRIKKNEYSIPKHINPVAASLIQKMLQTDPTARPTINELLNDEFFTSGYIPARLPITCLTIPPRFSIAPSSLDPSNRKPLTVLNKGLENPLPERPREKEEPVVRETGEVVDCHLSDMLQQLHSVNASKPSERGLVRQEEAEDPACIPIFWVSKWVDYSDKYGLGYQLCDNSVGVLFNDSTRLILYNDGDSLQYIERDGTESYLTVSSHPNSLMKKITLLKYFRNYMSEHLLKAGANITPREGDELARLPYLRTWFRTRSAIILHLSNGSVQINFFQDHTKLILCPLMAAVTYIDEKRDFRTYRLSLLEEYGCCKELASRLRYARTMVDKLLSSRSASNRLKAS

SMILES | IC50 (MRC-5 cell line; [1]) [nM] | IC50 (H526 cell line) [µM] | Activity: ratio of the luminescence value of each Exemplary Compound treatment group to DMSO treatment group (PLK1) | IC50 (MRC-5 cell line; [2]) [nM]
COc1cc(C(=O)NC2CCN(CC3CN(c4ccc(NC5CCC(=O)NC5=O)cc4F)C3)CC2)ccc1Nc1ncc2c(n1)N(C(C)C)CC(F)(F)C(=O)N2C (stereo not drawn) [Compound 20, 4-((7,7-difluoro-9-isopropyl-5-methyl-6-oxo-6,7,8,9-tetrahydro-5H-pyrimido[4,5-b][1,4]diazepin-2-yl)amino)-N-(1-((1-(4-((2,6-dioxopiperidin-3-yl)amino)-2-fluorophenyl)azetidin-3-yl)methyl)piperidin-4-yl)-3-methoxybenzamide] | > 10000 | < 0.05 | ++ (++<0.6) | –
COc1cc(C(=O)NN2CCC(CN3CCN(c4ccc(NC5CCC(=O)NC5=O)cc4C(F)(F)F)CC3)CC2)ccc1Nc1ncc2c(n1)N(C(C)C)CC(F)(F)C(=O)N2C (stereo not drawn) [Compound 21, 4-((7,7-difluoro-9-isopropyl-5-methyl-6-oxo-6,7,8,9-tetrahydro-5H-pyrimido[4,5-b][1,4]diazepin-2-yl)amino)-N-(4-((4-(4-((2,6-dioxopiperidin-3-yl)amino)-2-(trifluoromethyl)phenyl)piperazin-1-yl)methyl)piperidin-1-yl)-3-methoxybenzamide] | > 10000 | < 0.1 | ++ (++<0.6) | –
COc1cc(C(=O)NN2CCC(CCN3CCN(c4ccc(NC5CCC(=O)NC5=O)cc4F)CC3)CC2)ccc1Nc1ncc2c(n1)N(C1CCCC1)CC(F)(F)C(=O)N2C (stereo not drawn) [Compound 22, 4-((9-cyclopentyl-7,7-difluoro-5-methyl-6-oxo-6,7,8,9-tetrahydro-5H-pyrimido[4,5-b][1,4]diazepin-2-yl)amino)-N-(4-(2-(4-(4-((2,6-dioxopiperidin-3-yl)amino)-2-fluorophenyl)piperazin-1-yl)ethyl)piperidin-1-yl)-3-methoxybenzamide] | > 10000 | < 0.03 | +++ (+++: <0.3) | –
COc1cc(C(=O)NN2CCC(CCN3CCN(c4ccc(N(C)C5CCC(=O)NC5=O)cc4F)CC3)CC2)ccc1Nc1ncc2c(n1)N(C1CCCC1)CC(F)(F)C(=O)N2C (stereo not drawn) [Compound 23, 4-((9-cyclopentyl-7,7-difluoro-5-methyl-6-oxo-6,7,8,9-tetrahydro-5H-pyrimido[4,5-b][1,4]diazepin-2-yl)amino)-N-(4-(2-(4-(4-((2,6-dioxopiperidin-3-yl)(methyl)amino)-2-fluorophenyl)piperazin-1-yl)ethyl)piperidin-1-yl)-3-methoxybenzamide] | > 10000 | < 0.03 | +++ (+++: <0.3) | –
COc1cc(C(=O)NC2CC3(CCN(CC4CCN(c5ccc(NC6CCC(=O)NC6=O)cc5F)CC4)CC3)C2)ccc1Nc1ncc2c(n1)N(C(C)C)CC(F)(F)C(=O)N2C (stereo not drawn) [Compound 24, 4-((7,7-difluoro-9-isopropyl-5-methyl-6-oxo-6,7,8,9-tetrahydro-5H-pyrimido[4,5-b][1,4]diazepin-2-yl)amino)-N-(7-((1-(4-((2,6-dioxopiperidin-3-yl)amino)-2-fluorophenyl)piperidin-4-yl)methyl)-7-azaspiro[3.5]nonan-2-yl)-3-methoxybenzamide] | – | < 0.03 | +++ (+++: <0.3) | 23200
COc1cc(C(=O)NC2CC3(CCN(CC4CCN(c5c(F)cc(NC6CCC(=O)NC6=O)cc5F)CC4)CC3)C2)ccc1Nc1ncc2c(n1)N(C(C)C)CC(F)(F)C(=O)N2C (stereo not drawn) [Compound 25, 4-((7,7-difluoro-9-isopropyl-5-methyl-6-oxo-6,7,8,9-tetrahydro-5H-pyrimido[4,5-b][1,4]diazepin-2-yl)amino)-N-(7-((1-(4-((2,6-dioxopiperidin-3-yl)amino)-2,6-difluorophenyl)piperidin-4-yl)methyl)-7-azaspiro[3.5]nonan-2-yl)-3-methoxybenz amide] | – | < 0.03 | +++ (+++: <0.3) | 9240
COc1cc(C(=O)NC2CC3(CCN(CC4CCN(c5ccc(N(C)C6CCC(=O)NC6=O)cc5F)CC4)CC3)C2)ccc1Nc1ncc2c(n1)N(C(C)C)CC(F)(F)C(=O)N2C (stereo not drawn) [Compound 26, 4-((7,7-difluoro-9-isopropyl-5-methyl-6-oxo-6,7,8,9-tetrahydro-5H-pyrimido[4,5-b][1,4]diazepin-2-yl)amino)-N-(7-((1-(4-((2,6-dioxopiperidin-3-yl)(methyl)amino)-2-fluorophenyl)piperidin-4-yl)methyl)-7-azaspiro[3.5]nonan-2-yl)-3-methoxybenzamide] | – | < 0.05 | +++ (+++: <0.3) | 6550
COc1cc(C(=O)NC2CC3(CCN(CC4CCN(c5ccc(NC6CCC(=O)NC6=O)cc5)CC4)CC3)C2)ccc1Nc1ncc2c(n1)N(C(C)C)CC(F)(F)C(=O)N2C (stereo not drawn) [Compound 28, 4-((7,7-difluoro-9-isopropyl-5-methyl-6-oxo-6,7,8,9-tetrahydro-5H-pyrimido[4,5-b][1,4]diazepin-2-yl)amino)-N-(7-((1-(4-((2,6-dioxopiperidin-3-yl)amino)phenyl)piperidin-4-yl)methyl)-7-azaspiro[3.5]nonan-2-yl)-3-methoxybenzamide] | – | < 0.03 | ++ (++<0.6) | 10200
COc1cc(C(=O)NC2CC3(CCN(CC4CCN(c5c(F)cc(N(C)C6CCC(=O)NC6=O)cc5F)CC4)CC3)C2)ccc1Nc1ncc2c(n1)N(C(C)C)CC(F)(F)C(=O)N2C (stereo not drawn) [Compound 29, 4-((7,7-difluoro-9-isopropyl-5-methyl-6-oxo-6,7,8,9-tetrahydro-5H-pyrimido[4,5-b][1,4]diazepin-2-yl)amino)-N-(7-((1-(4-((2,6-dioxopiperidin-3-yl)(methyl)amino)-2,6-difluorophenyl)piperidin-4-yl)methyl)-7-azaspiro[3.5]nonan-2-yl)-3-methoxybenzamide] | – | < 0.05 | ++ (++<0.6) | 18500
COc1cc(C(=O)NCC2CC3(CCN(CC4CCN(c5c(F)cc(NC6CCC(=O)NC6=O)cc5F)CC4)CC3)C2)ccc1Nc1ncc2c(n1)N(C(C)C)CC(F)(F)C(=O)N2C (stereo not drawn) [Compound 30, 4-((7,7-difluoro-9-isopropyl-5-methyl-6-oxo-6,7,8,9-tetrahydro-5H-pyrimido[4,5-b][1,4]diazepin-2-yl)amino)-N-((7-((1-(4-((2,6-dioxopiperidin-3-yl)amino)-2,6-difluorophenyl)piperidin-4-yl)methyl)-7-azaspiro[3.5]nonan-2-yl)methyl)-3-methoxybenzamide] | – | < 0.03 | +++ (+++: <0.3) | 7870
COc1cc(C(=O)NN2CCC(N3CC4(CCN(c5ccc(NC6CCC(=O)NC6=O)cc5F)CC4)C3)CC2)ccc1Nc1ncc2c(n1)N(C(C)C)CC(F)(F)C(=O)N2C (stereo not drawn) [Compound 32, 4-((7,7-difluoro-9-isopropyl-5-methyl-6-oxo-6,7,8,9-tetrahydro-5H-pyrimido[4,5-b][1,4]diazepin-2-yl)amino)-N-(4-(7-(4-((2,6-dioxopiperidin-3-yl)amino)-2-fluorophenyl)-2,7-diazaspiro[3.5]nonan-2-yl)piperidin-1-yl)-3-methoxybenzamide] | > 10000 | < 0.05 | ++ (++<0.6) | –
